1 compound from US20110028566A1, “COMPOSITIONS AND PRODUCTS CONTAINING CYCLOALIPHATIC DIOL ANTIMICROBIAL AGENTS AND METHODS OF USING THE COMPOSITIONS AND PRODUCTS” (EASTMAN CHEMICAL COMPANY, priority 2009, published 2011) can be followed below.

For experiment [1], the system named is biodiesel-acclimated bioslime. Put plainly: 15-day biofouling control in B-100 biodiesel:Bushnell-Haas broth, visual turbidity. Format: cell-based. Set-up: key to Growth (visual turbidity rating): 0 = No Growth; 1 = Slight Growth; 2 = Moderate Growth; 3 = Heavy Growth. The following applies: 15 days, 22° C.; for Enhancement of the preservative (inhibitory) action of Killem biocide (in words): B-100 biodiesel, bioslime or trivalent bacterial-fungal inocula (Tables 54 & 55); for Growth (visual turbidity rating): biocide 0 mg/L, bioslime inoculum 50 uL. The protocol: Antimicrobial efficacy data (Table 54 & Table 55) were obtained for 1,4-CHDM with and without biocide in protection of B-100 biodiesel from microbial growth derived via either biodiesel-acclimated bioslime or trivalent bacterial-fungal inocula after 15-day exposure at 22° C. This testing was via a visual turbidity methodology. Neither micro-liter plates nor automatic plate reader could be used in this experiment due to the inherent biphasic nature of the system. B-100 biodiesel:Bushnell-Haas broth was used, which is a minimal salts medium specially designed for evaluating growth of microorganisms on hydrocarbons. Samples were evaluated visually (i.e., the more the turbidity, the more the growth, the less the turbidity, the less the growth, and no turbidity means no growth).

Experiment [2] concerns Corynebacterium xerosis ATCC #373. In words: Synergy testing in brain heart infusion media, 96-well plates. Format: cell-based. The following applies: for % CHDM: relative to CHDM alone; for SI: synergy index. The protocol: MICs were determined using a high-throughput microplate method. Individual antimicrobial agents were added to TSB (pH 7.3) for bacterial testing or SDB (pH 5.6) for fungal testing at the highest concentration to be tested. A serial dilution series was prepared at a dilution ratio of 1:1.3333 such that a one log range was covered in nine dilutions. Two-hundred microliters of the diluted antimicrobial agents were dispensed into four wells each of a sterile, 96-well, flat-bottom microplate (Nalge Nunc International). Four additional wells of the highest concentration were dispensed to serve as uninoculated high-level controls. Eight additional wells containing only broth medium were also prepared, four to serve as negative controls and four as positive controls. Three wells of each antimicrobial agent dilution were inoculated with one of the test strains in Table 7. The final well of each antimicrobial agent dilution was left uninoculated to serve as a control (and means of compensating) for any absorbance/turbidity due to the test compounds.
The individual antimicrobial agents listed in Table 8 were tested in combination with CHDM. The MIC values determined in the individual antimicrobial agent testing described above were used to establish a target MIC. In each experiment, MIC values for the individual antimicrobial agents and CHDM were determined in order to eliminate any variability due to comparison of data from different dates. Testing was done over a range of four concentrations separated by a factor of 1.3333 as described above. The four concentrations were the target MIC plus one dilution level higher and two dilution levels lower than the target. Combinations of antimicrobial agents and CHDM were made at 50% of the target MIC values and the higher and lower individual levels. Additionally, 50% level series were also tested with the antimicrobial agent or CHDM at one dilution level lower than the target level. The method of Kull et. al. (F. C. Kull et al., Applied Microbiology, 9, p 538-541 (1961)) was used to determine whether there was synergistic activity between CHDM and each antimicrobial agent for inhibition of each of the five microbes. MICs for the individually-tested CHDM and antimicrobial agent, as well as the concentration of CHDM and antimicrobial agent in the combination MIC were used to calculate a synergy index (SI) according to the equation: […]
where Qa and Qb are the minimum inhibitory concentrations for CHDM and a antimicrobial agent, respectively, when tested independently, and QA and QB are the concentrations of CHDM and a antimicrobial agent, respectively, in combination at an inhibitory concentration. Accordingly, synergy is defined as a SI less than one.
Experiments were also conducted using Corynebacterium xerosis, which is a bacterium known to cause body odor. […] The Corynebacterium xerosis bacterium used in this example was ATCC #373. The seed culture was grown in brain heart infusion medium. Assays were performed in brain heart infusion media in 96-well plates as described in Example 2. The brain heart infusion medium was at a pH of about 7.4. All growth was conducted at 37° C.

For `OCC1CCC(CO)CC1` (stereo not shown) [1,4-CHDM, 1,4-cyclohexanedimethanol], the “Enhancement of the preservative (inhibitory) action of Killem biocide (in words)” value in experiment [1] (Killem biocide 200 ppm, 1,4-CHDM 0.2-0.5 wt %) was “enhanced the preservative (inhibitory) action of the Killem biocide”; in experiment [1] (biocide 50 ppm or 100 ppm, or 1,4-CHDM 0.1 wt %), “No enhancement”. Besides, the “Growth (visual turbidity rating)” value in experiment [1] (1,4-CHDM 0.1% (v/v)), in experiment [1] (1,4-CHDM 0.2% (v/v)), in experiment [1] (1,4-CHDM 0.3% (v/v)), in experiment [1] (1,4-CHDM 0.4% (v/v)) and in experiment [1] (1,4-CHDM 0.5% (v/v)) was 3 each time. The “% CHDM” value in experiment [2] (Day 2, CHDM with EHG) came to 100.0%; in experiment [2] (Day 2, CHDM with TRI) it was 100.0%; in experiment [2] (Day 3, CHDM with EHG) it was 100.0%; in experiment [2] (Day 3, CHDM with TRI), 100.0%. Besides, the “QA/a (CHDM)” value in experiment [2] (Day 2, inhibitory concentration of CHDM alone or in combination with EHG, plate EX194-195-EHG-Syn1) was 2.110; in experiment [2] (Day 2, inhibitory concentration of CHDM alone or in combination with TRI, plate EX194-195-TRI-Syn1), 2.110; in experiment [2] (Day 3, inhibitory concentration of CHDM alone or in combination with EHG, plate EX194-195-EHG-Syn1), 2.110; in experiment [2] (Day 3, inhibitory concentration of CHDM alone or in combination with TRI, plate EX194-195-TRI-Syn1) it was 2.110. Moreover, the SI in experiment [2] (Day 2, CHDM with EHG) came out at 1.00; in experiment [2] (Day 2, CHDM with TRI), 1.00; in experiment [2] (Day 3, CHDM with EHG), 1.00; in experiment [2] (Day 3, CHDM with TRI), 1.00.
